The target of data set [1] is T1, HS2ST (Gallus gallus, UniProt Q76KB1).
T1 construct: made in house; host or cells: Escherichia coli Rosetta-gami (DE3), modified pMAL-c2x plasmid
T1 sequence (Q76KB1 69-356): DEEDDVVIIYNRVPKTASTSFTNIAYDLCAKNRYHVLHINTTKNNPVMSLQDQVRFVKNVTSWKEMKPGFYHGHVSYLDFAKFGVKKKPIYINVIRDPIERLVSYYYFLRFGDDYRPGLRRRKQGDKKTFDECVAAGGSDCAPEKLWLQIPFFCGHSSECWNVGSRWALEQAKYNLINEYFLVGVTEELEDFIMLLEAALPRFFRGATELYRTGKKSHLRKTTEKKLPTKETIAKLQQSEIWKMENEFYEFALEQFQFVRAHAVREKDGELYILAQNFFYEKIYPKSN
In words: Microfluidic mobility shift sulfation assay with fluorescent hexasaccharide substrate. It is filed as biochemical, Chicken. Particulars: for HS2ST inhibition (dose-response): 1 μM PAPS, 15 min at 20°C (Figure 4C); for HS2ST inhibition: concentrations as high as 400 μM (Supplementary Figure S9B); for mode of HS2ST inhibition: increasing concentration of PAPS, 10 μM PAP, 0.5 mM CoA or 20 μM rottlerin. The text has this:
(§1) N-sulfated, fluorescein-tagged hexasaccharide glycan substrate (GlcNS–GlcA–GlcNS–IdoA–GlcNS–GlcA-fluorescein, where S = sulfation) containing either L-IdoA or D-GlcA residues at the third residue from the reducing end (to which a linker and the fluorophore were conjugated) was both purchased from GLYCAN therapeutics (www.glycantherapeutics.com). […] Chemically modified heparins were generated through a published procedure, whereas oligosaccharides from Iduron were generated enzymatically. Non-radioactive microfluidic mobility shift carbohydrate sulfation assays were optimised in solution with a 12-sipper chip coated with CR8 reagent and a PerkinElmer EZ Reader II system using EDTA-based separation buffer and real-time kinetic evaluation of substrate sulfation. Pressure and voltage settings were adjusted manually to afford optimal separation of the sulfated product and non-sulfated hexasaccharide substrate, with a sample (sip) volume of 20 nl, and total assay times appropriate for the experiment. […] The degree of oligosaccharide sulfation was directly calculated using the EZ Reader software by measuring the sulfo oligosaccharide : oligosaccharide ratio at each time-point. The activity of HS2ST enzymes in the presence of biochemicals and small-molecule inhibitors was quantified in ‘kinetic mode’ by monitoring the amount of sulfated glycan generated over the assay time, relative to control assay with no additional inhibitor molecule (DMSO control). […] Km and IC50 values were determined by nonlinear regression analysis with GraphPad Prism software.
The PKIS chemical library (Supplementary Figure S6, designated as SB, GSK or GW compound sets) comprises 367 largely ATP-competitive kinase inhibitors, covering 31 chemotypes originally designed to inhibit 24 distinct protein kinase targets. Compounds were stored frozen as a 10 mM stock in DMSO. The library is characterised as highly drug-like (∼70% with molecular mass <500 Da and clogP values <5). […] For inhibition assays, competition assays or individual IC50 value determination, a compound range was prepared by serial dilution in DMSO and added directly into the assay to the appropriate final concentration. All control experiments contained 4% (v/v) DMSO, which had essentially no effect on HS2ST activity. Individual chemicals and glycan derivatives were prepared and evaluated using NMR, HPLC, DSF or microfluidics-based assay protocols, as described above.

The target in data set [2] is T1, HS2ST. The data set is described as follows: DSF thermal shift/stability assay of MBP-HS2ST. It counts as binding, Chicken. Particulars: 5 μM MBP-HS2ST; for thermal stabilisation of HS2ST (DSF): result in words.
The next data set deals with MBP. In words: DSF thermal shift control with MBP. It counts as binding. Particulars: 0.5 mM PAPS, 10 μM heparin or 5 mM maltose; result in words.
The test system of data set [3] is catalytic subunit of cAMP-dependent protein kinase (PKAc). The data set is described as follows: DSF thermal shift of recombinant PKAc. It is filed as binding. Particulars: 5 μM PKAc.
In data set [4] the test system is HS2ST. The following applies: read-out: Km for PAPS; HS2ST using desulfated heparin as a substrate; cited from earlier work.
Data set [5] concerns GlcNAc-6-sulfotransferase NodH. Particulars: read-out: Km for PAPS; PAPS-dependent GlcNAc-6-sulfotransferase NodH; cited from earlier work.
Data set [6] concerns hormone iodotyrosine sulfotransferases. The following applies: read-out: Km for PAPS; human hormone iodotyrosine sulfotransferases; cited from earlier work.
In a further data set the test system is tyrosyl sulfotransferase. Particulars: read-out: Km for PAPS; tissue-purified tyrosyl sulfotransferase; cited from earlier work.
Substrate in data set [7]: Nc1ncnc2c1ncn2C1OC(COP(=O)(O)OS(=O)(=O)O)C(OP(=O)(O)O)C1O
The data set is described as follows: Microfluidic mobility shift sulfation assay with fluorescent hexasaccharide substrate. It is filed as biochemical, Chicken. Particulars: other: 20 nM HS2ST, fluorescein-labelled IdoA hexasaccharide substrate; pH 7.4.
Source text: as §1, with “sulfation.” for “sulfation. Pressure and voltage settings were adjusted manually to afford optimal separation of the sulfated product and non-sulfated hexasaccharide substrate, with a sample (sip) volume of 20 nl, and total assay times appropriate for the experiment.”, “software. […]” for “software.”

Setting [8] is: nucleotides, 20 nM HS2ST, 10 μM PAPS, absence of MgCl2, 15 min, read-out: IC50.
The mark [9] stands for this setting: 20 nM HS2ST, 10 μM PAPS (Figure 3D), read-out: IC50.
[10] abbreviates: positive controls of the PKIS enzyme re-screen (Figure 4B, Supplementary Figures 7 and 8), read-out: IC50.

Where “and” joins values, the source holds several entries; their conditions need not be identical. Equal values may be shown once. Entries after “also recorded” stand apart in the source; their conditions may differ. Read-outs that look alike come from different tables or passages of the source.

Take `O=C1Nc2ccc(I)cc2C1=Cc1cc(Br)c(O)c(Br)c1` [GW305074]: the “HS2ST inhibition (dose-response)” value at HS2ST [1] (20 nM HS2ST, result in words) is recorded as “mid-micromolar HS2ST inhibitor”.
`Nc1nc2c(ncn2[C@@H]2O[C@H](COP(=O)(O)OP(=O)(O)OP(=O)(O)O)[C@@H](O)[C@H]2O)c(=O)[nH]1` [GTP, guanosine 5′-triphosphate]: the “thermal stabilisation of HS2ST (DSF)” value at HS2ST [2] is on record as “effective at protecting HS2ST from thermal denaturation”.
In the case of `CC(C)(C)c1nc(-c2cccc(NS(=O)(=O)c3c(F)cccc3F)c2F)c(-c2ccnc(N)n2)s1` [dabrafenib], the HS2ST inhibition result on HS2ST [1] (result in words) was “unable to inhibit HS2ST”.
As a reminder, the IC50 is the concentration at which inhibition is half-maximal. Turning to `CC(C)(COP(=O)(O)OP(=O)(O)OC[C@H]1O[C@@H](n2cnc3c(N)ncnc32)[C@H](O)[C@@H]1OP(=O)(O)O)[C@@H](O)C(=O)NCCC(=O)NCCS` [CoA, coenzyme A], the “thermal stabilisation of HS2ST (DSF)” value at HS2ST [2] was “clearly induced thermal stabilisation”. Moreover, the “mode of HS2ST inhibition” value at HS2ST [1] was “PAPS-competitive mode of inhibition”. Moreover, the IC50 on HS2ST [1] (setting [8]) was found to be 65000 nM.
For `CC(=O)c1c(O)c(C)c(O)c(Cc2c(O)c3c(c(C(=O)/C=C/c4ccccc4)c2O)OC(C)(C)C=C3)c1O` [rottlerin], the half-maximal inhibitory concentration (IC50) is 6400 nM on HS2ST [1] (IC50, 20 nM HS2ST, 10 μM PAPS (Figure 3D)); approximately 8000 nM on HS2ST [1] (IC50, positive control of the PKIS enzyme re-screen (Figure 4B, Supplementary Figures 7 and 8)). Further, the “mode of HS2ST inhibition” value on HS2ST [1] is “competitive mode of HS2ST inhibition”.
In the case of `OC[C@H]1O[C@H](O[C@H]2[C@H](O)[C@@H](O)C(O)O[C@@H]2CO)[C@H](O)[C@@H](O)[C@@H]1O` (mixture of isomers) [maltose], in the data set with MBP, the “thermal stabilisation of MBP (DSF)” value is reported as “characteristic stabilisation profile”.
In the case of `Nc1ncnc2c1ncn2[C@@H]1O[C@H](COP(=O)(O)O)[C@@H](O)[C@H]1O` [AMP, adenosine 5′-monophosphate], on HS2ST [2], the “thermal stabilisation of HS2ST (DSF)” value is “not”.
`COC(=O)c1ccc2c(c1)C(=Cc1cc(Br)c(O)c(Br)c1)C(=O)N2` [GW405841X]: the “HS2ST inhibition (dose-response)” value at HS2ST [1] (20 nM HS2ST, result in words) is “did not inhibit HS2ST at any concentration tested”.
`Nc1ncnc2c1ncn2[C@@H]1O[C@H](COP(=O)(O)OP(=O)(O)OP(=O)(O)O)[C@@H](O)[C@H]1O` [ATP, adenosine 5′-triphosphate]: the IC50 on HS2ST [1] (setting [8]) turned out to be 466000 nM.
`CC(C)(COP(=O)(O)OP(=O)(O)OC[C@H]1O[C@@H](n2cnc3c(N)ncnc32)[C@H](O)[C@@H]1O)[C@@H](O)C(=O)NCCC(=O)NCCS` [dephospho-CoA, 3′-dephosphoCoA]: at HS2ST [2], the “thermal stabilisation of HS2ST (DSF)” value was “abolished this effect”.
The term Km denotes the substrate concentration at which the rate is half of its maximum. Regarding `Nc1ncnc2c1ncn2C1OC(COP(=O)(O)OS(=O)(=O)O)C(OP(=O)(O)O)C1O` (stereo not drawn) [PAPS, adenosine 3′-phosphate 5′-phosphosulfate], the “thermal stabilisation of HS2ST (DSF)” value at HS2ST [2] is reported as “positively shifted (stabilised); also recorded: dose-dependent stabilisation”. The “thermal stabilisation of MBP (DSF)” value in the data set with MBP is “neither PAPS nor heparin induced stabilisation”. Besides, the “thermal stabilisation of PKAc (DSF)” value in [3] (0.5 mM PAPS, result in words) is recorded as “did not stabilise”. For the same molecule, the Km is 18.5 µM in the data set with HS2ST [4], approximately 4.3 µM in data set [5], 1.5 µM in data set [6] and 10 µM in the data set with tyrosyl sulfotransferase.
The term ΔTm denotes the shift of the melting midpoint relative to a reference. For Mg-ATP, in data set [3] (0.5 mM ATP and 10 mM MgCl2), the ΔTm is more than 4 °C.
In the case of `CC(=O)SCCNC(=O)CCNC(=O)[C@H](O)C(C)(C)COP(=O)(O)OP(=O)(O)OC[C@H]1O[C@@H](n2cnc3c(N)ncnc32)[C@H](O)[C@@H]1OP(=O)(O)O` [acetyl CoA], the “thermal stabilisation of HS2ST (DSF)” value on HS2ST [2] is “clearly induced thermal stabilisation”.
Take `[Mg+2]` [Mg^2+]: on HS2ST [2] (DSF), the ΔTm is approximately 3 °C. Moreover, the HS2ST enzyme activity result at HS2ST [1] (high (>1 mM) concentrations of Mg2+ ions, relative to buffer controls, result in words) is on record as “concentration-dependent increases”.
With `CN[C@@H]1C[C@H]2O[C@@](C)([C@@H]1OC)n1c3ccccc3c3c4c(c5c6ccccc6n2c5c31)C(=O)NC4` [staurosporine], the “thermal stabilisation of HS2ST (DSF)” value at HS2ST [2] is given as “neither the pan-kinase inhibitor staurosporine nor several FDA-approved tyrosine kinase inhibitors caused thermal stabilisation”.
Consider `Nc1ncnc2c1ncn2C1OC(COP(=O)(O)O)C(OP(=O)(O)O)C1O` (stereo not drawn) [PAP, adenosine 3′–5′-diphosphate], for which, at HS2ST [2], the “thermal stabilisation of HS2ST (DSF)” value is “did not abrogate HS2ST binding”. Moreover, the “mode of HS2ST inhibition” value at HS2ST [1] is “PAPS-competitive mode of inhibition”. The IC50 on HS2ST [1] (setting [8]) was approximately 2000 nM.
As to `CCCS(=O)(=O)Nc1ccc(F)c(C(=O)c2c[nH]c3ncc(-c4ccc(Cl)cc4)cc23)c1F` [vemurafenib], the HS2ST inhibition result at HS2ST [1] (result in words) is “unable to inhibit HS2ST”.
With `Cc1ccc(C(=O)Nc2ccc(S(=O)(=O)O)c3cc(S(=O)(=O)O)cc(S(=O)(=O)O)c23)cc1NC(=O)c1cccc(NC(=O)Nc2cccc(C(=O)Nc3cc(C(=O)Nc4ccc(S(=O)(=O)O)c5cc(S(=O)(=O)O)cc(S(=O)(=O)O)c45)ccc3C)c2)c1` [suramin], the half-maximal inhibitory concentration (IC50) is 40 ± 1 nM on HS2ST [1] (setting [9]) and approximately 20 nM on HS2ST [1] (setting [10]).
Regarding `O=C(O)C1=CC(=C(c2ccc(O)c(C(=O)O)c2)c2ccc(O)c(C(=O)O)c2)C=CC1=O` [aurintricarboxylate, aurintricarboxylic acid], the half-maximal inhibitory concentration (IC50) on HS2ST [1] (setting [9]) is 123 ± 7 nM; on HS2ST [1] (setting [10]) it was approximately 90 nM.
As for `Nc1ncnc2c1ncn2[C@@H]1O[C@H](COP(=O)(O)OP(=O)(O)O)[C@@H](O)[C@H]1O` [ADP, adenosine 5′-diphosphate], on HS2ST [2], the “thermal stabilisation of HS2ST (DSF)” value was “effective at protecting HS2ST from thermal denaturation”.

B1: HS2ST (Gallus gallus) (protein)
chain: DEEDDVVIIYNRVPKTASTSFTNIAYDLCAKNRYHVLHINTTKNNPVMSLQDQVRFVKNVTSWKEMKPGFYHGHVSYLDFAKFGVKKKPIYINVIRDPIERLVSYYYFLRFGDDYRPGLRRRKQGDKKTFDECVAAGGSDCAPEKLWLQIPFFCGHSSECWNVGSRWALEQAKYNLINEYFLVGVTEELEDFIMLLEAALPRFFRGATELYRTGKKSHLRKTTEKKLPTKETIAKLQQSEIWKMENEFYEFALEQFQFVRAHAVREKDGELYILAQNFFYEKIYPKSN
notes: made in house; host or cells: Escherichia coli Rosetta-gami (DE3), modified pMAL-c2x plasmid
Take B1: in data set [7], the Km is 1.03 ± 0.2 µM and 1 µM and 1.0 µM.

The values are drawn from paper PMC6094399, “New tools for carbohydrate sulfation analysis: heparan sulfate 2-O-sulfotransferase (HS2ST) is a target for small-molecule protein kinase inhibitors” (Biochemical Journal, 2018).
